Our source for the Drug degradation, Stability and IC50 values is ChEMBL document CHEMBL4373748, “Reinvestigation of Mycothiazole Reveals the Penta-2,4-dien-1-ol Residue Imparts Picomolar Potency and 8S Configuration” (ACS Med Chem Lett, 2020).

Some results are limits rather than exact numbers.

In general, IC50 refers to the midpoint of a concentration-inhibition curve.

Data set [1] in a line: Drug degradation assessed as methyl N-[(E)-8-[4-[(2E)-hexa-2,5-dienyl]-1,3-thiazol-2-yl]-3,7-dihydroxy-3-(hydroxymethyl)-8-methylnon-4-enyl]carbamate metabolite formation by measuring relative abundance measured after preserving compound in amber vial containing 95% CH3CN and 5% H2O followed by drying using N2 stream followed by exposure to direct light for 24 hrs by LC-MS-TIC analysis. Type of data set: physicochemical.

Data set [2] can be described thus: Stability of compound assessed as shelf life measured after preserving compound in amber vial containing 95% CH3CN and 5% H2O followed by drying using N2 stream and later punged-with argon followed by exposure to 4 degC for 24 hrs. Type of data set: physicochemical.
The next data set concerns HepG2. The data set can be described thus: Cytotoxicity against human HepG2 cells assessed as reduction in cell viability incubated for 3 days by tryphan blue dye based assay. Type of data set: functional. The conditions noted are these: HepG2, 72 h.
Another data set has as its system HCT-116. Briefly: Cytotoxicity against human HCT116 cells assessed as reduction in cell viability incubated for 3 days by tryphan blue dye based assay. The settings on record: HCT-116, 72 h. Type of data set: functional.
Data set [3] is described as follows: Drug degradation assessed as methyl N-[(E)-8-[4-[(2E)-hexa-2,5-dienyl]-1,3-thiazol-2-yl]-3,7-dihydroxy-3-(hydroxymethyl)-8-methylnon-4-enyl]carbamate metabolite formation by measuring maximum absorbance units measured after preserving compound in amber vial containing methanol followed by drying using N2 stream for 24 hrs at room temperature by ultraviolet-photoiodide array detection method. The class given is physicochemical.

A short description of data set [4]: Drug degradation assessed as methyl N-[(E)-8-[4-[(2E)-hexa-2,5-dienyl]-1,3-thiazol-2-yl]-3,7-dihydroxy-3-(hydroxymethyl)-8-methylnon-4-enyl]carbamate metabolite formation by relative abundance measured after preserving compound in amber vial containing 95% CH3CN and 5% H2O followed by drying using N2 stream and later punged-with argon in dark desiccator under vacuum for 24 hrs by LC-MS-TIC analysis. Type of data set: physicochemical.

Data set [5] in a line: Drug degradation assessed as methyl N-[(E)-8-[4-[(2E)-hexa-2,5-dienyl]-1,3-thiazol-2-yl]-3,7-dihydroxy-3-(hydroxymethyl)-8-methylnon-4-enyl]carbamate metabolite formation by measuring maximum absorbance units measured after preserving compound in amber vial containing 95% CH3CN and 5% H2O followed by drying using N2 stream and later punged-with argon in dark desiccator under vacuum for 24 hrs by ultraviolet-photoiodide array detection method. The class given is physicochemical.

A further data set deals with PANC-1. Briefly: Cytotoxicity against human PANC1 cells assessed as reduction in cell viability incubated for 3 days by tryphan blue dye based assay. Type of data set: functional. The settings on record: PANC-1, 72 h.
The nature of data set [6]: Drug degradation assessed as methyl N-[(E)-8-[4-[(2E)-hexa-2,5-dienyl]-1,3-thiazol-2-yl]-3,7-dihydroxy-3-(hydroxymethyl)-8-methylnon-4-enyl]carbamate metabolite formation by measuring relative abundance measured after preserving compound in amber vial containing methanol followed by drying using air stream for 24 hrs at room temperature by LC-MS-TIC analysis. The class given is physicochemical.

Data set [7] in a line: Drug degradation assessed as methyl N-[(E)-8-[4-[(2E)-hexa-2,5-dienyl]-1,3-thiazol-2-yl]-3,7-dihydroxy-3-(hydroxymethyl)-8-methylnon-4-enyl]carbamate metabolite formation by measuring relative abundance measured after preserving compound in amber vial containing methanol followed by drying using N2 stream for 24 hrs at room temperature by LC-MS-TIC analysis. The class given is physicochemical.

Data set [8] can be described thus: Drug degradation assessed as methyl N-[(E)-8-[4-[(2E)-hexa-2,5-dienyl]-1,3-thiazol-2-yl]-3,7-dihydroxy-3-(hydroxymethyl)-8-methylnon-4-enyl]carbamate metabolite formation by measuring maximum absorbance units measured after preserving compound in amber vial containing 95% CH3CN and 5% H2O followed by drying using N2 stream followed by exposure to direct light for 24 hrs by ultraviolet-photoiodide array detection method. The class given is physicochemical.

Data set [9] can be described thus: Drug degradation assessed as methyl N-[(E)-8-[4-[(2E)-hexa-2,5-dienyl]-1,3-thiazol-2-yl]-3,7-dihydroxy-3-(hydroxymethyl)-8-methylnon-4-enyl]carbamate metabolite formation by measuring relative abundance measured after preserving compound in amber vial containing 95% CH3CN and 5% H2O followed by drying using N2 stream and later punged-with argon followed by exposure to 4 degC for 24 hrs by LC-MS-TIC analysis. The class given is physicochemical.

A short description of data set [10]: Drug degradation assessed as methyl N-[(E)-8-[4-[(2E)-hexa-2,5-dienyl]-1,3-thiazol-2-yl]-3,7-dihydroxy-3-(hydroxymethyl)-8-methylnon-4-enyl]carbamate metabolite formation by measuring maximum absorbance units measured after preserving compound in amber vial containing 95% CH3CN and 5% H2O followed by drying using N2 stream and later punged-with argon followed by exposure to 4 degC for 24 hrs by ultraviolet-photoiodide array detection method. Type of data set: physicochemical.

A short description of data set [11]: Drug degradation assessed as methyl N-[(E)-8-[4-[(2E)-hexa-2,5-dienyl]-1,3-thiazol-2-yl]-3,7-dihydroxy-3-(hydroxymethyl)-8-methylnon-4-enyl]carbamate metabolite formation by measuring maximum absorbance units measured after preserving compound in amber vial containing methanol followed by drying using air stream for 24 hrs at room temperature by ultraviolet-photoiodide array detection method. The class given is physicochemical.

The nature of data set [12]: Stability of compound assessed as shelf life measured after preserving compound in amber vial containing 95% CH3CN and 5% H2O followed by drying using N2 stream and later punged-with argon in dark desiccator under vacuum for 24 hrs. The class given is physicochemical.
The nature of data set [13]: Stability of compound in benzene-d6 by 1H-NMR analysis. Type of data set: physicochemical.

In the case of `C=CC/C=C/Cc1csc(C(C)(C)[C@H](O)C/C=C\C(=C)CCNC(=O)OC)n1`, the Drug degradation is 60% in data set [1]; 500000 a.u in data set [3]; 20% in [4]; 500000 a.u in data set [5]; 45% in data set [6]; 45% in data set [7]. For the same compound, the Drug degradation is recorded as 280000 a.u in [8], 20% in [9], 500000 a.u in [10] and 500000 a.u in data set [11]. Further, the Stability in [2] and in data set [12] was 3 to 6 weeks in each case. Moreover, the half-inhibitory concentration (IC50) in the data set with HepG2 amounted to 0.27 nM; in the data set on HCT-116, 0.35 nM; in the data set on PANC-1, 0.16 nM.
Take `C=CC/C=C/Cc1csc(C(C)(C)[C@@H](C/C=C\C(=C)CCNC(=O)OC)OC(C)=O)n1`: the IC50 in the data set with PANC-1 came out at 1.3 nM. Besides, in [13], the Stability entry is on record as “>= 6 months”.
For the compound `C=CC/C=C\Cc1csc(C(C)(C)[C@H](O)CC2C=C(CCNC(=O)OC)CON2c2ccccc2)n1` (stereo partly specified), in the data set on PANC-1, the IC50 is more than 1000 nM.
In the case of `C=CC/C=C\Cc1csc(C(C)(C)[C@H](O)C/C=C/C(O)(CO)CCNC(=O)OC)n1` (stereo partly specified), the IC50 in the data set on HCT-116 was more than 1000 nM.
As for `C=CC/C=C\Cc1csc(C(C)(C)C(O)CC2C=C(CCNC(=O)OC)CN(c3ccccc3)O2)n1` (single isomer, unassigned), the IC50 with PANC-1 was more than 1000 nM.
Same read-out and setting: the figure for `C=CC/C=C\Cc1csc(C(C)(C)C(=O)C/C=C\C(=C)CCNC(=O)OC)n1` is 2000 nM.
